Assay results as given in patent US5053333A, “Protease” (M & D Research Co., Ltd., priority 1988, dated 1991).
Like-named read-outs stand apart in the source and are kept apart here. Numbered stars: 1 amine (or outer) side, 2 acyl side, 3 side chain; on linkers, the order of the positions; unused ones are H or OH. Square brackets hold non-standard residues; d marks the D form. Peptide text beside a SMILES is read from it. * marks the point of attachment. Sta = CC(C)C[C@H](N)[C@@H](O)CC(=O)O; AMC = Cc1cc(=O)oc2cc(N*)ccc12; Suc = O=C(CCC(=O)[*:2])[*:1]; Isovaleryl = CC(C)CC(=O)*; Cbz = O=C(OCc1ccccc1)*; CO = O=C([*:1])[*:2]

Tests used:
[1] = system: protease specific for basic amino acid residue from Sporobolomyces odrus IFO 1597; test: Substrate specificity of Sporobolomyces protease with fluorescent substrates; format: biochemical; conditions: activity for Boc-Gln-Arg-Arg-MCA being 100; standard conditions
Description: A reaction mixture containing 50 μmol of tris hydrochloride buffer solution (pH 7.0), 10 mg of Lubrol PX, 0.5 μmol of calcium chloride, 0.1 μmol of Boc-Gln-Arg-Arg-MCA, wherein Boc represents a t-butyloxycalbonyl group while MCA represents 4-methylcoumarin-7-amide and the enzyme is allowed to react at 30° C. The fluorescence (excition wavelength: 380 nm, emission wavelength: 460 nm) originating from the 7-amino-4-methylcoumarin (AMC) thus formed is monitored. The amount of the enzyme capable of catalyzing the release of 1 nmol of AMC per one minute is defined as 1 U.
The activities of the enzyme for various fluorescent substrates were determined under standard reaction conditions.

[2] = system: Benz-I (protease specific for basic amino acid residue); test: Behavior of Benz-I against various inhibitors (residual activity); format: biochemical, Kluyveromyces lactis IFO 1903
[3] = system: Benz-II (protease specific for basic amino acid residue); test: Behavior of Benz-II against various inhibitors (residual activity); format: biochemical, Kluyveromyces lactis IFO 1903
[4] = system: protease specific for basic amino acid residue from Sporobolomyces odrus IFO 1597; test: Behavior of Sporobolomyces protease against various inhibitors (residual activity); format: biochemical; conditions: 25° C. 30 minutes
[5] = inhibitor 10 μM, 25° C. 30 minutes, control lot = 100
[6] = inhibitor 1 mM, 25° C. 30 minutes, control lot = 100
[7] = inhibitor 0.1%, 25° C. 30 minutes, control lot = 100
[8] = inhibitor 0.2 mM, 25° C. 30 minutes, control lot = 100
[9] = inhibitor 4 M, 25° C. 30 minutes, control lot = 100

In the case of `Cc1cc(=O)oc2cc(NC(=O)[C@H](C)NC(=O)[C@@H]3CCCN3C(=O)[C@H](C)NC(=O)CCC(=O)O)ccc12` [Suc--Ala--Pro--Ala--MCA] (Suc-Ala-Pro-Ala-{AMC}), the “Activity (relative) for substrate” value [1] is reported as 0%.
`Cc1cc(=O)oc2cc(NC(=O)[C@@H]3CCCN3C(=O)CNC(=O)CCC(=O)O)ccc12` [Suc--Gly--Pro--MCA] (Suc-Gly-Pro-{AMC}) was tested, and the “Activity (relative) for substrate” value [1] was 0%.
For `Cc1cc(=O)oc2cc(NC(=O)[C@H](Cc3ccc(O)cc3)NC(=O)[C@@H](NC(=O)[C@H](CC(C)C)NC(=O)[C@H](CC(C)C)NC(=O)CCC(=O)O)C(C)C)ccc12` [Suc--Leu--Leu--Val--Tyr--MCA] (Suc-LLVY-{AMC}), the “Activity (relative) for substrate” value [1] was 0%.
For `Cc1cc(=O)oc2cc(NC(=O)[C@H](CCCNC(=N)N)NC(=O)[C@H](CCCNC(=N)N)NC(=O)OCc3ccccc3)ccc12` [Z--Arg--Arg--MCA] (Cbz-Arg-Arg-{AMC}), the “Activity (relative) for substrate” value [1] was 0%.
In the case of `CC(C)[C@H](NC(=O)[C@H](CCCNC(=N)N)NC(=O)N[C@@H](Cc1ccccc1)C(=O)O)C(=O)N[C@H](C=O)CCCNC(=N)N` [antipain] ({Phe-CO}-Arg-Val-Arg-aldehyde), the “Residual activity of Benz-I” value [2, 5] is reported as 89, the “Residual activity of Benz-II” value [3, 5] is reported as 88 and the “relative activity (residual)” value ([4]; Ca2+ +, inhibitor 10 μM) is reported as 70%.
For `N=C(N)c1ccccc1` [benzamidine], the “Residual activity of Benz-I” value [2, 6] was 79, the “Residual activity of Benz-II” value [3, 6] was 82 and the “relative activity (residual)” value ([4]; Ca2+ +, inhibitor 1 mM) was 82%.
`CC(C)C[C@H](NC(=O)[C@@H](O)[C@H](N)Cc1ccccc1)C(=O)O` [bestatin] was tested, and the “Residual activity of Benz-I” value [2, 5] was 95, the “Residual activity of Benz-II” value [3, 5] was 97 and the “relative activity (residual)” value ([4]; Ca2+ +, inhibitor 10 μM) was 97%.
`NC(=O)CI` [iodoacetamide] was tested, and the “Residual activity of Benz-I” value [2, 6] was 92, the “Residual activity of Benz-II” value [3, 6] was 87 and the “relative activity (residual)” value ([4]; Ca2+ +, inhibitor 1 mM) was 96%.
`O=C(O)CI` [iodoacetic acid] was tested, and the “Residual activity of Benz-I” value [2] was 99 and the “Residual activity of Benz-II” value [3] was 93.
With `CC(=O)N[C@@H](CC(C)C)C(=O)N[C@@H](CC(C)C)C(=O)N[C@H](C=O)CCCNC(=N)N` [leupeptin] the “Residual activity of Benz-I” value [2, 5] was 93, the “Residual activity of Benz-II” value [3, 5] was 96 and the “relative activity (residual)” value ([4]; Ca2+ +, inhibitor 10 μM) was 92%.
With `c1cnc2c(c1)ccc1cccnc12` [o-phenanthroline] the “Residual activity of Benz-I” value [2, 6] was 96, the “Residual activity of Benz-II” value [3, 6] was 86 and the “relative activity (residual)” value ([4]; Ca2+ --, inhibitor 1 mM) was 91%.
`CC(C)CC(=O)N[C@H](C(=O)N[C@H](C(=O)N[C@@H](CC(C)C)[C@@H](O)CC(=O)N[C@@H](C)C(=O)N[C@@H](CC(C)C)[C@@H](O)CC(=O)O)C(C)C)C(C)C` [pepstatin A] (Isovaleryl-VV[Sta]A[Sta]-OH) was tested, and the “Residual activity of Benz-I” value [2, 5] was 100, the “Residual activity of Benz-II” value [3, 5] was 96 and the “relative activity (residual)” value ([4]; Ca2+ +, inhibitor 10 μM) was 104%.
For `O=S(=O)(F)Cc1ccccc1` [phenylmethanesulfonyl fluoride], the “Residual activity of Benz-I” value [2, 6] was 107, the “Residual activity of Benz-II” value [3, 6] was 103 and the “relative activity (residual)” value ([4]; Ca2+ +, inhibitor 1 mM) was 112%.
`CC(C)C[C@H](NP(=O)(O)O[C@@H]1O[C@@H](C)[C@H](O)[C@@H](O)[C@H]1O)C(=O)N[C@@H](Cc1c[nH]c2ccccc12)C(=O)O` [phosphoramidon] was tested, and the “Residual activity of Benz-I” value [2, 5] was 101, the “Residual activity of Benz-II” value [3, 5] was 93 and the “relative activity (residual)” value ([4]; Ca2+ +, inhibitor 10 μM) was 100%.
With `CCCCCCCCCCCCOS(=O)(=O)[O-].[Na+]` [sodium dodecyl sulfate] the “Residual activity of Benz-I” value [2, 7] was 94 and the “Residual activity of Benz-II” value [3, 7] was 91.
For `Cc1ccc(S(=O)(=O)NC(CCCCN)C(=O)CCl)cc1` (stereo not shown) [tosyllysine chloromethyl ketone], the “Residual activity of Benz-I” value [2, 8] was 98, the “Residual activity of Benz-II” value [3, 8] was 95 and the “relative activity (residual)” value ([4]; Ca2+ +, inhibitor 0.2 mM) was 108%.
In the case of `NC(N)=O` [urea], the “Residual activity of Benz-I” value [2, 9] is reported as 23 and the “Residual activity of Benz-II” value [3, 9] is reported as 29.
For chymostatin, the “Residual activity of Benz-I” value [2, 5] was 98, the “Residual activity of Benz-II” value [3, 5] was 99 and the “relative activity (residual)” value ([4]; Ca2+ +, inhibitor 10 μM) was 98%.
